According to PubChem BioAssay AID651672 (The Scripps Research Institute Molecular Screening Center, 2012):
Several values for one entry are separate records, joined by “and”; a condition that tells them apart may be missing. Equal values may be shown once. Activity calls are given as the source filed them. The rule behind the calls is not given here.

Biological target: Perilipin-1 (Homo sapiens) (UniProt O60240)
Assay: ABHD5 and perilipin-1 interaction blockers – biochemical, luminescence, counter-screen for ABHD5-PLIN5 interaction inhibitor project, dose response (AID 651672);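 note: split Gaussia luciferase complementation between ABHD5 and PLIN1 fusion fragments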
Details: ABHD5-PLIN1 interaction

Chain of Perilipin-1 (Homo sapiens) (O60240 whole entry, looked up, the tested form may be a part): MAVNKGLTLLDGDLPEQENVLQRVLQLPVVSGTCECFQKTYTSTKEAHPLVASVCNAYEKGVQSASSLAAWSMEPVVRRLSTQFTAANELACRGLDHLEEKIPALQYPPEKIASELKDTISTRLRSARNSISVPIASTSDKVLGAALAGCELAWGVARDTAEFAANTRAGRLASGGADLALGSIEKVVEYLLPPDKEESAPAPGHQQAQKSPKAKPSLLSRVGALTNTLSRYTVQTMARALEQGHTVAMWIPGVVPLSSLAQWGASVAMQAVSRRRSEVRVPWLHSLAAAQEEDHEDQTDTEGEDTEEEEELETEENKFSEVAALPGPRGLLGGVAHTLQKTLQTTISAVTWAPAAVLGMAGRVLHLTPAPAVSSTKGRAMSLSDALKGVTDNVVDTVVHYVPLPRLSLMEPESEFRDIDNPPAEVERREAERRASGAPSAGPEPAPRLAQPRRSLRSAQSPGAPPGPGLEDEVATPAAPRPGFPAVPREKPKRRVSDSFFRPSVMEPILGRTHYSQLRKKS

Row | SMILES | IC50
1 | COc1ccc(NC(=O)C(c2cccc3ccccc23)n2c(=O)c(-c3ccco3)nc3ccccc32)cc1 (stereo not drawn) | inactive
2 | Cc1ccc(O)c(C(=O)/C=C/c2ccc3c(c2)OCCCO3)c1 | 4.63 µM
3 | CC(=O)Oc1c(Br)cc(N(C(C)=O)S(=O)(=O)c2ccccc2)c2ccccc12 | 8.8 µM
4 | CC(C)(C)NC(=O)C(c1ccc(C(F)(F)F)cc1)n1c(=O)c(-c2ccco2)nc2ccccc21 (stereo not drawn) | 2.69 µM
5 | CC1=CC(C)(C)Nc2ccc(OC(=O)CN3C(=O)c4cccc5cccc(c45)C3=O)cc21 | 6.42 µM
6 | CCCCOC(=O)Nc1cc(C(=O)OC)ccc1C(=O)OC | 6.03 µM
7 | COc1ccc(NC(=O)C(c2ccnc3ccccc23)n2c(=O)c(-c3ccco3)nc3ccccc32)cc1 (stereo not drawn) | 4.76 µM
8 | COc1ccc(NC(=O)C(c2ccccc2)n2c(=O)c(-c3ccco3)nc3ccccc32)cc1 (stereo not drawn) | 8.47 µM
9 | C#CCOCCOCCOCCNc1nc(N2CCN(C(=O)CCCCCCCCCCNC(=O)[C@@H](CCSC)n3cc(CCO)nn3)CC2)nc(N2CCN(C(=O)CCCCCCCCCCNC(=O)[C@@H]([C@H](C)O)n3cc(C)nn3)CC2)n1 | inactive
10 | O=C1C(=O)c2c(C(=O)c3ccccc3)coc2-c2ccccc21 | 4.97 µM
11 | CC(=O)Oc1c(Cl)cc(N(C(C)=O)S(=O)(=O)c2ccccc2)c2ccccc12 | 3.88 µM
12 | COc1cc(C)c2sc3ccccc3c(=O)c2c1NCCN(C)C | 6.3 µM
13 | COc1ccc(/C=C/C(=O)c2cc(F)ccc2OC(=O)c2ccc(OC)c(OC)c2)cc1OC | 2.44 µM
14 | O=c1c(-c2ccco2)nc2ccccc2n1C(CCc1ccccc1)c1nc2ccccc2[nH]1 (stereo not drawn) | 2.32 µM
15 | CN1[C@@H]2CC[C@H]1CC(OC1c3ccccc3CCc3ccccc31)C2 (stereo partly drawn) | 1.92 µM
16 | CCC(c1nc2ccccc2[nH]1)n1c(=O)c(-c2ccco2)nc2ccccc21 (stereo not drawn) | 3.97 µM
17 | O=C(CF)N(O)c1ccc(C=Cc2ccccc2)cc1 | > 13.3 µM (inactive)
18 | O=C1NC(=O)N(Cc2ccc(F)cc2)C(=O)/C1=C\C=C\c1ccco1 | 1.69 µM
19 | O=C(/C=C/c1ccc2c(c1)OCCCO2)c1ccccc1O | 5.52 µM
20 | Cc1ccc2c(CC(=O)N3CCN(S(=O)(=O)c4ccc5c(c4)OCCO5)CC3)coc2c1 | 5.11 µM

Row | SMILES | IC50
21 | O=C(NCc1ccccc1)C(c1ccccc1F)n1c(=O)c(-c2ccco2)nc2ccccc21 (stereo not drawn) | 2.31 µM
22 | Cc1cccc(C)c1NC(=O)C(c1ccccc1)n1c(=O)c(-c2ccco2)nc2ccccc21 (stereo not drawn) | 3.37 µM
23 | O=C(/C=C/c1ccc(NC(=O)c2ccccc2-c2ccccc2C(=O)O)cc1)c1ccccc1 | 8.03 µM
24 | O=C(NCc1ccccc1)C(c1cccc2ccccc12)n1c(=O)c(-c2ccco2)nc2ccccc21 (stereo not drawn) | 2.06 µM
25 | Cc1ccc(C(=O)c2coc3c2C(=O)C(=O)c2ccccc2-3)cc1 | 3.88 µM
26 | CCCCCNC(=O)C(c1ccccc1F)n1c(=O)c(-c2ccco2)nc2ccccc21 (stereo not drawn) | 1.09 µM
27 | CCOC(=O)/C(=C\c1ccc(Cl)cc1)c1nc2sc(C)c(C)c2c(=O)[nH]1 | 0.525 µM
28 | COC(=O)c1cc(=O)n(-c2ccc(F)cc2)c(=Nc2ccc(F)cc2)s1 | 2.5 µM
29 | C=C[C@]1(C)C[C@@H](OC(=O)CSCCN(CC)CC)[C@]2(C)C(C)CC[C@]3(CCC(=O)[C@H]32)[C@@H](C)[C@@H]1O (stereo partly drawn) | inactive
30 | CCSc1nnc(NC(=O)c2nc(S(=O)(=O)Cc3ccc(F)cc3)ncc2Cl)s1 | 2.68 µM
31 | C=CC(=O)N1c2ccccc2Sc2ccc(NC(=O)OCC)cc21 | 5.01 µM
32 | COc1ccc(C(C(=O)NC2CCCCC2)n2c(=O)c(-c3ccco3)nc3ccccc32)cc1 (stereo not drawn) | 1.27 µM
33 | N#Cc1ccc(C(C(=O)NCc2ccccc2)n2c(=O)c(-c3ccco3)nc3ccccc32)cc1 (stereo not drawn) | 1.7 µM
34 | CCCc1nnc(NC(=O)c2nc(S(=O)(=O)Cc3cccc(C)c3)ncc2Cl)s1 | 2.83 µM
35 | COc1cc(C(C)=O)ccc1OCc1cn(CC(=O)c2ccc(O)cc2)nn1 | 4.59 µM
36 | Cc1ccc(/C=C/C(=O)c2cc(Br)ccc2OC(=O)c2ccco2)cc1 | 0.684 µM
37 | Cc1cccc(C)c1NC(=O)C(c1ccncc1)n1c(=O)c(-c2ccco2)nc2ccccc21 (stereo not drawn) | 7.15 µM
38 | O=C(O)CC(O)(CC(=O)O)C(=O)O | 3.71 µM
39 | CCCCCNC(=O)C(c1cc2ccccc2o1)n1c(=O)c(-c2ccco2)nc2ccccc21 (stereo not drawn) | 1.48 µM
40 | N#Cc1ccc(C(C(=O)Nc2ccc3c(c2)OCCO3)n2c(=O)c(-c3ccco3)nc3ccccc32)cc1 (stereo not drawn) | 7.22 µM

Row | SMILES | IC50
41 | COC/C=C/C1=CC2=CC(=O)C(C)(OC(=O)C3CCCC3)C(=O)C2=CO1 (stereo not drawn) | 2.45 µM
42 | NC(=NCCCCCCN=C(N)/N=C(\N)Nc1ccc(Cl)cc1)/N=C(\N)Nc1ccc(Cl)cc1 | 2.86 µM and 2.31 µM
43 | CCOC(=O)N1CCN(C(=O)C[C@@H]2C[C@@]3(C(=O)OCC)CCC=C3N(Cc3ccc(Cl)cc3Cl)C2=O)CC1 | 9.78 µM
44 | CC(C)(C)NC(=O)C(c1ccccc1)n1c(=O)c(-c2ccco2)nc2ccccc21 (stereo not drawn) | 2.04 µM
45 | CCc1nnc(NC(=O)c2nc(S(=O)(=O)Cc3ccccc3)ncc2Cl)s1 | 4.25 µM
46 | CCCCCNC(=O)C(c1ccc(OC)cc1)n1c(=O)c(-c2ccco2)nc2ccccc21 (stereo not drawn) | 1.41 µM
47 | CN(C)CCOC1(Cc2ccc(F)cc2)CCC(C(C)(C)C)CC1 (stereo not drawn) | 9.95 µM
48 | CN(C)c1ccc(Cc2cc3c(O)ccc(O)c3cc(Cc3ccc(N(C)C)cc3)c2=O)cc1 | 2.4 µM
49 | CCCCNC(=O)Nc1ccc2c(c1)N(C)C(=O)c1ccccc1S2 | 3.19 µM
50 | CC1CCN(S(=O)(=O)c2ccc(NC(=O)Cc3ccccc3)cc2)CC1 | 5.33 µM
51 | O=C(NC1CCCCC1)C(c1ccc(-c2ccccc2)cc1)n1c(=O)c(-c2ccco2)nc2ccccc21 (stereo not drawn) | 1.88 µM
52 | COc1ccccc1-c1cc(C(=O)NC2CCN(C)CC2)c2ccc(Cl)c(C)c2n1 | inactive
53 | CCC1(C)N=C(c2ccc3c(c2)OCO3)CC(c2ccccc2O)N1 (stereo not drawn) | 1.06 µM
54 | N#Cc1ncc(Cc2ccccc2)nc1C#N | inactive
55 | CC(O)CC(=O)OC[C@]12CC[C@H]3[C@@](C)(CC[C@H]4C(C)(C)CCC[C@]34C)[C@@H]1CC(C1=CC(=O)OC1O)O2 (stereo partly drawn) | 1.25 µM
56 | CCCCn1c(SCC(=O)NCc2ccco2)nnc1-c1ccoc1C | 4.71 µM
57 | CS(=O)(=O)c1ccc(C(=O)NCCN2C(=O)S/C(=C\c3cccnc3)C2=O)cc1[N+](=O)[O-] | 5.14 µM
58 | CN(C)CCOc1ccc(-c2c(-c3ccccc3)sc3ccccc23)cc1 | inactive
